Earlier results as cited in US20060251704A1, “Methods and devices for efficacious treatment of aphthous ulcers” (priority 2005, published 2006).

Test system: aphthous ulcers (RAS)
Conditions: by the 6th day

## CC(C)c1ccc2oc3nc(N)c(C(=O)O)cc3c(=O)c2c1 [amlexanox]
Vehicle control 54.7%
  patients with healed ulcers: 65.6%
Patients with RAS, control group 72.8%
  patients pain free: 82.8%
